Experimental data reported in ChEMBL document CHEMBL4665709, “Rational Avoidance of Protease Cleavage Sites and Symmetrical End-Tagging Significantly Enhances the Stability and Therapeutic Potential of Antimicrobial Peptides” (J Med Chem, 2020).
In brackets after ≈: the same amount, converted by molar mass. Where a SMILES comes first, the peptide text is derived from it.

Key:
[1] = Therapeutic index, ratio of MHC for human RBC to geometric mean of peptide MIC for Streptococcus agalactiae H92; type: toxicity; details: human red blood cells (RBC), read-out: TI
[2] = Therapeutic index, ratio of MHC for human RBC to geometric mean of peptide MIC for Staphylococcus epidermidis ATCC 12228; type: toxicity; details: human red blood cells (RBC), read-out: TI
[3] = Therapeutic index, ratio of MHC for human RBC to geometric mean of peptide MIC for methicillin-resistant Staphylococcus aureus 43300; type: toxicity; details: human red blood cells (RBC), read-out: TI
[4] = Therapeutic index, ratio of MHC for human RBC to geometric mean of peptide MIC for Enterococcus faecalis ATCC 29212; type: toxicity; details: human red blood cells (RBC), read-out: TI
[5] = Therapeutic index, ratio of MHC for human RBC to geometric mean of peptide MIC for Staphylococcus aureus ATCC 29213; type: toxicity; details: human red blood cells (RBC), read-out: TI
[6] = Therapeutic index, ratio of MHC for human RBC to geometric mean of peptide MIC for Staphylococcus aureus 11011; type: toxicity; details: human red blood cells (RBC), read-out: TI
[7] = Therapeutic index, ratio of MHC for human RBC to geometric mean of peptide MIC for Salmonella pullorum 7913; type: toxicity; details: human red blood cells (RBC), read-out: TI
[8] = Therapeutic index, ratio of MHC for human RBC to geometric mean of peptide MIC for Salmonella typhimurium 7731; type: toxicity; details: human red blood cells (RBC), read-out: TI
[9] = Therapeutic index, ratio of MHC for human RBC to geometric mean of peptide MIC for Salmonella choleraesuis 503; type: toxicity; details: human red blood cells (RBC), read-out: TI
[10] = Therapeutic index, ratio of MHC for human RBC to geometric mean of peptide MIC for Escherichia coli UB1005; type: toxicity; details: human red blood cells (RBC), read-out: TI
[11] = Therapeutic index, ratio of MHC for human RBC to geometric mean of peptide MIC for Salmonella typhimurium 14028; type: toxicity; details: human red blood cells (RBC), read-out: TI
[12] = Therapeutic index, ratio of MHC for human RBC to geometric mean of peptide MIC for Escherichia coli ATCC 25922; type: toxicity; details: human red blood cells (RBC), read-out: TI
Staphylococcus aureus [13] = assay: Antibacterial activity against Staphylococcus aureus ATCC 29213 after 18 to 24 hrs by CLSI-based broth microdilution method; type: functional; details: time hrs 18-24
Staphylococcus aureus [14] = assay: Antibacterial activity against Staphylococcus aureus 11011 after 18 to 24 hrs by CLSI-based broth microdilution method; type: functional; details: time hrs 18-24
Escherichia coli [15] = assay: Antibacterial activity against Escherichia coli ATCC 25922 after 18 to 24 hrs by CLSI-based broth microdilution method; type: functional; details: time hrs 18-24
Escherichia coli [16] = assay: Antibacterial activity against Escherichia coli UB1005 after 18 to 24 hrs by CLSI-based broth microdilution method; type: functional; details: time hrs 18-24
Salmonella typhimurium [17] = assay: Antibacterial activity against Salmonella typhimurium 14028 after 18 to 24 hrs by CLSI-based broth microdilution method; type: functional, Salmonella enterica subsp. enterica serovar Typhimurium; details: Salmonella enterica, time hrs 18-24
Salmonella typhimurium [18] = assay: Antibacterial activity against Salmonella typhimurium 7731 after 18 to 24 hrs by CLSI-based broth microdilution method; type: functional, Salmonella enterica subsp. enterica serovar Typhimurium; details: Salmonella enterica, time hrs 18-24
[19] = Antibacterial activity against Salmonella pullorum 7913 after 18 to 24 hrs by CLSI-based broth microdilution method; type: functional, Salmonella enterica subsp. enterica serovar Pullorum; details: Salmonella enterica, time hrs 18-24
Salmonella enterica = assay: Antibacterial activity against Salmonella choleraesuis 503 after 18 to 24 hrs by CLSI-based broth microdilution method; type: functional; details: time hrs 18-24
[20] = tested on: Staphylococcus epidermidis; assay: Antibacterial activity against Staphylococcus epidermidis ATCC 12228 after 18 to 24 hrs by CLSI-based broth microdilution method; type: functional; details: time hrs 18-24
Enterococcus faecalis = assay: Antibacterial activity against Enterococcus faecalis ATCC 29212 after 18 to 24 hrs by CLSI-based broth microdilution method; type: functional; details: time hrs 18-24
Staphylococcus aureus [21] = assay: Antibacterial activity against methicillin-resistant Staphylococcus aureus 43300 after 18 to 24 hrs by CLSI-based broth microdilution method; type: functional; details: time hrs 18-24
Streptococcus agalactiae = assay: Antibacterial activity against Streptococcus agalactiae H92 after 18 to 24 hrs by CLSI-based broth microdilution method; type: functional; details: time hrs 18-24
Erythrocyte = assay: Hemolytic activity in human RBC assessed as hemolysis; type: ADME, cell-based
[22] = Hemolytic activity in human RBC assessed as hemolysis at 1 to 128 uM relative to control; type: ADME, cell-based, Erythrocyte; details: human red blood cells (RBC), dose 1-128 µM, read-out: Activity
[23] = Cytotoxicity against mouse RAW264.7 cells assessed as cell viability at 128 uM by MTT assay relative to control; type: cell-based; details: read-out: Activity
[24] = Cytotoxicity against HEK-293T cells assessed as cell viability at 128 uM by MTT assay relative to control; type: cell-based; details: human, read-out: Activity

SMILES	selectivity ratio [1]	selectivity ratio [2]	selectivity ratio [3]	selectivity ratio [4]	selectivity ratio [5]	selectivity ratio [6]	selectivity ratio [7]	selectivity ratio [8]	selectivity ratio [9]	selectivity ratio [10]	selectivity ratio [11]	selectivity ratio [12]	MIC (Staphylococcus aureus [13]) [µM]	MIC (Staphylococcus aureus [14]) [µM]	MIC (Escherichia coli [15]) [µM]	MIC (Escherichia coli [16]) [µM]	MIC (Salmonella typhimurium [17]) [µM]	MIC (Salmonella typhimurium [18]) [µM]	MIC [19] [µM]	MIC (Salmonella enterica) [µM]	also measured
CC[C@H](C)[C@H](N)C(=O)N[C@H](C(=O)N[C@@H](CS)C(=O)N[C@@H](CCCNC(=N)N)C(=O)N[C@@H](CCCCN)C(=O)N1CCC[C@H]1C(=O)N[C@H](C(=O)N[C@H](C(=O)N[C@@H](CS)C(=O)N[C@@H](CCCNC(=N)N)C(=O)N[C@@H](CCCCN)C(=O)N1CCC[C@H]1C(=O)N[C@H](C(=O)N[C@H](C(=O)N[C@@H](CS)C(=O)N[C@@H](CCCNC(=N)N)C(=O)N[C@@H](CCCCN)C(=O)N1CCC[C@H]1C(=O)N[C@H](C(=O)N[C@H](C(N)=O)[C@@H](C)CC)[C@@H](C)CC)[C@@H](C)CC)[C@@H](C)CC)[C@@H](C)CC)[C@@H](C)CC)[C@@H](C)CC (H-IICRKPIICRKPIICRKPII-NH2)	2	2	2	2	2	2	14.2	14.2	14.2	14.2	14.2	14.2	> 64	> 64	4 (≈ 9.5 µg/mL)	4 (≈ 9.5 µg/mL)	8 (≈ 19 µg/mL)	8 (≈ 19 µg/mL)	32 (≈ 76 µg/mL)	16 (≈ 38 µg/mL)	MIC [20]: 64 µM (≈ 152 µg/mL); MIC (Enterococcus faecalis): > 64 µM; MIC (Staphylococcus aureus [21]): 64 µM (≈ 152 µg/mL); MIC (Streptococcus agalactiae): 64 µM (≈ 152 µg/mL); MHC (Erythrocyte): > 128 µM; hemolysis at up to 128 µM [22]: < 5%; viability at 128 µM [23]: > 90%; viability at 128 µM [24]: > 90%
CC[C@H](C)[C@H](N)C(=O)N[C@H](C(=O)N[C@@H](CS)C(=O)N[C@@H](CCCNC(=N)N)C(=O)N[C@@H](CCCCN)C(=O)N1CCC[C@H]1C(=O)N[C@H](C(=O)N[C@H](C(=O)N[C@@H](CS)C(=O)N[C@@H](CCCNC(=N)N)C(=O)N[C@@H](CCCCN)C(=O)N1CCC[C@H]1C(=O)N[C@H](C(=O)N[C@H](C(N)=O)[C@@H](C)CC)[C@@H](C)CC)[C@@H](C)CC)[C@@H](C)CC)[C@@H](C)CC (H-IICRKPIICRKPII-NH2)	2	2	2	2	2	2	4	4	4	4	4	4	> 64	> 64	16 (≈ 26.6 µg/mL)	16 (≈ 26.6 µg/mL)	32 (≈ 53.3 µg/mL)	32 (≈ 53.3 µg/mL)	> 64	> 64	MIC [20]: > 64 µM; MIC (Enterococcus faecalis): > 64 µM; MIC (Staphylococcus aureus [21]): > 64 µM; MIC (Streptococcus agalactiae): > 64 µM; MHC (Erythrocyte): > 128 µM; hemolysis at up to 128 µM [22]: < 5%; viability at 128 µM [23]: > 90%; viability at 128 µM [24]: > 90%
